Patent US20260053861A1, “CELL COMPOSITIONS AND METHODS OF USING THE SAME” (THE REGENTS OF THE UNIVERSITY OF CALIFORNIA, priority 2022, published 2026)
Where a name gives a salt, the structure may show the parent alone. Read-outs that look alike come from different tables or passages of the source.

Test system: hPSC-SCs
[1] = HTS viability of hPSC-SCs in the presence of 30 mM glucose, Prestwick library, Table S4

Compound | z.score.t [1] | z.score.t
O=C(O)CCC(=O)c1ccc(-c2ccccc2)cc1 [Fenbufen] | 1.249 | 
C[C@@H]1O[C@@H](O[C@H]2[C@H](Oc3cc(O)c4c(c3)O[C@H](c3ccc(O)cc3)CC4=O)O[C@H](CO)[C@@H](O)[C@@H]2O)[C@H](O)[C@H](O)[C@H]1O [Naringin hydrate] | 1.659 | 
Cc1ncc([N+](=O)[O-])n1CCO [Metronidazole] | 1.259 | 
CCCc1cc(=O)[nH]c(=S)[nH]1 [Propylthiouracil] | −0.2904 | 
COC(=O)C1=C(C)NC(C)=C(C(=O)OCC(C)C)C1c1ccccc1[N+](=O)[O-] (stereo not shown) [Nisoldipine] | −0.5992 | 
CCC(=O)[C@@]1(C)[C@H](C)C[C@H]2[C@@H]3CCC4=CC(=O)C=C[C@]4(C)[C@H]3[C@@H](O)C[C@@]21C [Rimexolone] | −1.354 | 
Timolol maleate salt | −0.6395 | 
C[C@H](CCC(=O)O)[C@H]1CC[C@H]2[C@@H]3[C@@H](O)C[C@@H]4C[C@H](O)CC[C@]4(C)[C@H]3CC[C@]12C [Urosiol] | −0.6988 | 
C[N+]1(C)CCC[C@H]1C(=O)[O-].Cl [Stachydrine hydrochloride] | −0.8304 | 
Cc1scc2c1N(C(=O)CN1CCN(C)CC1)c1ccccc1NC2=O [Telenzepine dihydrochloride] | 0.5452 | 
Cc1n[nH]c(=O)[nH]c1=O [Azathymine, 6] |  | −0.5337
CN[C@@H]1[C@@H](O[C@H]2O[C@H](CO)[C@@H](N)[C@H](O)[C@H]2O)OC2C[C@@H](N)[C@@H](O[C@H]3[C@H](O)[C@@H](O)[C@H](N)C[C@@H]3N)OC2[C@@H]1O (stereo partly shown) [Apramycin] | 0.1828 | 
O=c1cc(-c2ccc(O)cc2)oc2c([C@@H]3O[C@H](CO)[C@@H](O)[C@H](O)[C@H]3O)c(O)cc(O)c12 [Vitexin] | −0.05622 | 
CC(C)NCC(O)c1ccc(NS(C)(=O)=O)cc1 (stereo not shown) [Sotalol hydrochloride] | −1.056 | 
N[C@@H](C(=O)N[C@@H]1C(=O)N2C(C(=O)O)=C(Cl)CS[C@H]12)c1ccccc1 [Cefaclor] | −0.7233 | 
C[C@]12CC[C@H]3[C@@H](CCC4=CC(=O)CC[C@@H]43)[C@@H]1CC[C@@H]2O [Nandrolone] |  | 1.306
COc1ccc2c(c1)C(=O)N(CCc1ccc(S(=O)(=O)NC(=O)NC3CCCCC3)cc1)C(=O)C2(C)C [Gliquidone] | 2.369 | 
COc1cc2nc(N3CCN(C(=O)C4COc5ccccc5O4)CC3)nc(N)c2cc1OC (stereo not shown) [Doxazosin mesylate] | −0.8683 | 
CNNCc1ccc(C(=O)NC(C)C)cc1 [Procarbazine hydrochloride] | −0.01802 | 
CCCCN(CCCC)CCC(O)c1cc2c(Cl)cc(Cl)cc2c2cc(C(F)(F)F)ccc12 (stereo not shown) [Halofantrine hydrochloride] | −1.422 | 
Cc1ccccc1C(OCCN(C)C)c1ccccc1 (stereo not shown) [Orphenadrine hydrochloride] | −1.003 | 
CCC(=O)O[C@]1(C(=O)SCF)[C@H](C)C[C@H]2[C@@H]3C[C@H](F)C4=CC(=O)C=C[C@]4(C)[C@@]3(F)[C@@H](O)C[C@@]21C [Fluticasone propionate] | 0.1543 | 
CC1(C)NC(=O)N(c2ccc([N+](=O)[O-])c(C(F)(F)F)c2)C1=O [Nilutamide] | 0.1244 | 
N=C(N)c1ccc(OCCCCCOc2ccc(C(=N)N)cc2)cc1 [Pentamidine isethionate] | −0.8129 | 
NC[C@H]1O[C@H](O[C@H]2[C@H](O)[C@@H](O[C@H]3O[C@H](CO)[C@@H](O)[C@H](N)[C@H]3O)[C@H](N)C[C@@H]2N)[C@H](O)[C@@H](O)[C@@H]1O.O=S(=O)(O)O [Kanamycin A sulfate] | 0.07052 | 
Tyloxapol |  | −1.008

Compound | z.score.t [1] | z.score.t
N[C@@H]1C[C@H]1c1ccccc1 [Tranylcypromine hydrochloride] | 0.08508 | 
Cc1ncc([N+](=O)[O-])n1CC(O)CCl (stereo not shown) [Ornidazole] | 0.1446 | 
CC1CS(=O)(=O)CCN1/N=C/c1ccc([N+](=O)[O-])o1 (stereo not shown) [Nifurtimox] | 1.522 | 
CCN1CCCC1CNC(=O)c1cc(S(N)(=O)=O)ccc1OC (stereo not shown) [Sulpiride] | 0.1594 | 
CC1(C)O[C@@H]2C[C@H]3[C@@H]4C[C@H](F)C5=CC(=O)C=C[C@]5(C)[C@H]4[C@@H](O)C[C@]3(C)[C@]2(C(=O)CO)O1 [Flunisolide] | 1.612 | 
OCCN1CCN(CC/C=C2/c3ccccc3Sc3ccc(Cl)cc32)CC1 [Zuclopenthixol hydrochloride] | −1.345 | 
Cc1nnc(NS(=O)(=O)c2ccc(N)cc2)s1 [Sulfamethizole] | 1.132 | 
CC(C)NCC(O)COc1ccc(COCCOC(C)C)cc1 (stereo not shown) [Bisoprolol fumarate] | −0.1003 | 
C1CCN2C[C@@H]3C[C@@H](CN4CCCC[C@@H]34)[C@H]2C1 [Sparteine (−)] |  | 0.1131
Cn1c(=O)c2[nH]cnc2n(C)c1=O [Aminophylline] | 1.208 | 
CCCOc1ccc(C(=O)OCCN(CC)CC)cc1N [Proparacaine hydrochloride] | 0.7158 | 
COCC(=O)Nc1c(I)c(C(=O)NCC(O)CO)c(I)c(C(=O)N(C)CC(O)CO)c1I (stereo not shown) [Iopromide] | −0.5992 | 
CC[N+](C)(C)c1cccc(O)c1 [Edrophonium chloride] |  | 0.7913
CC(=O)[C@H]1CC[C@H]2[C@@H]3CCC4=CC(=O)CC[C@]4(C)[C@H]3CC[C@]12C [Progesterone] | 0.1767 | 
CC(Cc1cccc(C(F)(F)F)c1)NCCOC(=O)c1ccccc1 (stereo not shown) [Benfluorex hydrochloride] | 1.095 | 
C=C(C)[C@@H]1[C@H]2OC(=O)[C@@H]1[C@]1(O)C[C@H]3O[C@]34C(=O)O[C@H]2[C@]14C [Picrotoxinin] |  | 1.281
COc1ccccc1N1CCN(CCCNc2cc(=O)n(C)c(=O)n2C)CC1 [Urapidil hydrochloride] | 0.4105 | 
O=c1[nH]c2ccccc2n1C1CCN(CCCC(c2ccc(F)cc2)c2ccc(F)cc2)CC1 [Pimozide] | −1.173 | 
N[C@H]1CONC1=O [(S)-(−)-Cycloserine] | −0.3729 | 
CC(COc1ccccc1)N(CCCl)Cc1ccccc1 (stereo not shown) [Phenoxybenzamine hydrochloride] |  | 0.03421
O=C(O)COC(=O)Cc1ccccc1Nc1c(Cl)cccc1Cl [Aceclofenac] | 0.08508 | 
CC(=O)OCC(=O)[C@@]12OC(C)(C)O[C@@H]1C[C@H]1[C@@H]3C[C@H](F)C4=CC(=O)C=C[C@]4(C)[C@@]3(F)[C@@H](O)C[C@@]12C [Fluocinonide] | 0.2803 | 
Nc1ccc(S(=O)(=O)c2ccc(N)cc2)cc1 [Dapsone] | 1.024 | 
COc1cc2c(cc1OC)C(C)NCC2.Cl (stereo not shown) |  | 0.3024
Cc1cc(C)nc(NS(=O)(=O)c2ccc(N)cc2)n1 [Sulfamethazine sodium salt] | 0.3022 | 
CC(=O)CCCCn1c(=O)c2c(ncn2C)n(C)c1=O [Pentoxifylline] | 1.045 | 

Compound | z.score.t [1] | z.score.t
O=C(O)c1cc(/N=N/c2ccc(S(=O)(=O)Nc3ccccn3)cc2)ccc1O [Sulfasalazine] | 0.1344 | 
CNCCC=C1c2ccccc2CCc2ccccc21 [Nortriptyline hydrochloride] | −1.753 | 
COc1cc(N)c(Cl)cc1C(=O)NC1CCN(CCCOc2ccc(F)cc2)CC1OC (stereo not shown) [Cisapride] | 0.3436 | 
COc1ccc2c(c1OC)C(=O)O[C@@H]2[C@H]1c2cc3c(cc2CCN1C)OCO3 [Hydrastine hydrochloride] |  | −0.4139
CCN1C[C@]2(COC)CC[C@H](OC)[C@]34C5C[C@@H]6[C@@H](OC)C[C@@]7(OCO[C@@]7(C13)[C@@H](O)C24)C5[C@H]6OC (stereo partly shown) [Delcorine] |  | −0.9741
CN(C)CCCO[C@@H]1[C@H]2OC(C)(C)O[C@H]2O[C@@H]1[C@H](O)CO [Amiprilose hydrochloride] | 1.178 | 
CCN1CCC[C@H]1CNC(=O)c1c(OC)ccc(Br)c1OC [Remoxipride Hydrochloride] | 0.05395 | 
CS(=N)(=O)CC[C@H](N)C(=O)O (stereo partly shown) [Methionine sulfoximine (L)] | 1.124 | 
CCCCCCCCCCCCCCCC[N+](C)(C)CCN(Cc1ccc(OC)cc1)c1ncccn1 [Thonzonium bromide] | −1.884 | 
COc1ccc2c(c1)c(CC(=O)O)c(C)n2C(=O)c1ccc(Cl)cc1 [Indomethacin] | 1.045 | 
Nc1cc(C(Cl)=C(Cl)Cl)c(S(N)(=O)=O)cc1S(N)(=O)=O [Clorsulon] | 0.563 | 
NS(=O)(=O)c1cc(Cl)c(Cl)c(S(N)(=O)=O)c1 [Dichlorphenamide] | −0.8317 | 
Butirosin disulfate salt |  | −0.5169
O=C(O)Cc1ccc(-c2ccccc2)cc1 [Felbinac] | −0.0788 | 
CCN(CC)CCOC(=O)c1ccc(N)cc1 [Procaine hydrochloride] | 0.5587 | 
CC[C@@]1(O)C(=O)OCc2c1cc1n(c2=O)Cc2cc3ccccc3nc2-1 [Camptothecine (S, +)] | −1.163 | 
COc1ccc2c(c1)c(CC(=O)OCC(=O)O)c(C)n2C(=O)c1ccc(Cl)cc1 [Acemetacin] | −1.873 | 
COCCOC(=O)C1=C(C)NC(C)=C(C(=O)OC(C)C)C1c1cccc([N+](=O)[O-])c1 (stereo not shown) [Nimodipine] | −1.245 | 
Cc1nc2n(c(=O)c1CCN1CCC(c3noc4cc(F)ccc34)CC1)CCCC2 [Risperidone] |  | 0.02517
COc1ccc2cc1Oc1ccc(cc1)C[C@H]1c3cc(c(OC)cc3CCN1C)Oc1c(OC)c(OC)cc3c1[C@H](C2)N(C)CC3 [Tetrandrine] | −0.4538 | 
CCN(CC)CCNc1ccc(CO)c2sc3ccccc3c(=O)c12 [Hycanthone] | −0.2904 | 
CN[C@@H]1[C@@H](O)[C@@H](O[C@@H]2[C@@H](O)[C@H](O[C@H]3OC(CN)=CC[C@H]3N)[C@@H](N)C[C@H]2N)OC[C@]1(C)O [Sisomicin sulfate] | −0.3319 | 
NCCC(=O)NCCc1c[nH]cn1 [Carcinine] | 0.8711 | 
COc1ccc2c(c1O)-c1c(OC)c(OC)cc3c1[C@H](C2)N(C)CC3 [Isocorydine (+)] | 1.845 | 
